Data: ChEMBL document CHEMBL1681651, “A broad spectrum anticancer nucleoside with selective toxicity against human colon cells in vitro” (2011)

Columns and labels:
Type in all cases: functional
SK-MEL-5 [1] = experiment: Growth inhibition of human SK-MEL-5 cells assessed as cell growth at 1 uM after 48 hrs by SRB assay; conditions: SK-MEL-5, 48 h, read-out: Activity
KM12 = experiment: Growth inhibition of human KM12 cells assessed as cell growth at 100 uM after 48 hrs by SRB assay; conditions: KM12, 48 h, read-out: Activity
NCI-H522 [2] = experiment: Growth inhibition of human NCI-H522 cells assessed as cell growth at 100 uM after 48 hrs by SRB assay; conditions: NCI-H522, 48 h, read-out: Activity
SN12C = experiment: Growth inhibition of human SN12C cells assessed as cell growth at 1 uM after 48 hrs by SRB assay; conditions: read-out: Activity
LOX IMVI = experiment: Growth inhibition of human LOXIMVI cells assessed as cell growth at 1 mM after 48 hrs by SRB assay; conditions: read-out: Activity
OVCAR-3 [3] = experiment: Growth inhibition of human OVCAR3 cells assessed as cell growth at 100 uM after 48 hrs by SRB assay; conditions: OVCAR-3, 48 h, read-out: Activity
SF-295 [4] = experiment: Growth inhibition of human SF295 cells assessed as cell growth at 0.1 uM after 48 hrs by SRB assay; conditions: SF-295, 48 h, read-out: Activity
TK-10 [5] = experiment: Growth inhibition of human TK10 cells assessed as cell growth at 1 uM after 48 hrs by SRB assay; conditions: TK-10, 48 h, read-out: Activity
NCI-H322M [6] = experiment: Growth inhibition of human NCI-H322M cells assessed as cell growth at 1 uM after 48 hrs by SRB assay; conditions: read-out: Activity
SF-539 = experiment: Growth inhibition of human SF539 cells assessed as cell growth at 1 uM after 48 hrs by SRB assay; conditions: SF-539, 48 h, read-out: Activity
SK-MEL-5 [7] = experiment: Growth inhibition of human SK-MEL-5 cells after 48 hrs by […] growth inhibition assay; conditions: SK-MEL-5, 48 h
HOP-92 = experiment: Growth inhibition of human HOP92 cells assessed as cell growth at 10 uM after 48 hrs by SRB assay; conditions: HOP-92, 48 h, read-out: Activity
SW-620 = experiment: Growth inhibition of human SW620 cells assessed as cell growth at 10 uM after 48 hrs by SRB assay; conditions: SW-620, 48 h, read-out: Activity
TK-10 [8] = experiment: Growth inhibition of human TK10 cells after 48 hrs by […] growth inhibition assay; conditions: TK-10, 48 h
CCRF-CEM = experiment: Growth inhibition of human CCRF-CEM cells assessed as cell growth at 10 uM after 48 hrs by SRB assay; conditions: read-out: Activity
SF-295 [9] = experiment: Growth inhibition of human SF295 cells assessed as cell growth at 1 mM after 48 hrs by SRB assay; conditions: SF-295, 48 h, read-out: Activity
OVCAR-4 = experiment: Growth inhibition of human OVCAR4 cells after 48 hrs by […] growth inhibition assay; conditions: OVCAR-4, 48 h
ACHN = experiment: Growth inhibition of human ACHN cells assessed as cell growth at 1 uM after 48 hrs by SRB assay; conditions: read-out: Activity
NCI-H322M [10] = experiment: Growth inhibition of human NCI-H322M cells after 48 hrs by […] growth inhibition assay
SK-MEL-5 [11] = experiment: Growth inhibition of human SK-MEL-5 cells assessed as cell growth at 10 uM after 48 hrs by SRB assay; conditions: SK-MEL-5, 48 h, read-out: Activity
OVCAR-3 [12] = experiment: Growth inhibition of human OVCAR3 cells after 48 hrs by […] growth inhibition assay; conditions: OVCAR-3, 48 h
HOP-62 = experiment: Growth inhibition of human HOP62 cells assessed as cell growth at 1 mM after 48 hrs by SRB assay; conditions: HOP-62, 48 h, read-out: Activity
HCT-116 = experiment: Growth inhibition of human HCT116 cells after 48 hrs by […] growth inhibition assay; conditions: HCT-116, 48 h
NCI-H226 = experiment: Growth inhibition of human NCI-H226 cells assessed as cell growth at 1 mM after 48 hrs by SRB assay; conditions: NCI-H226, 48 h, read-out: Activity
DU-145 = experiment: Growth inhibition of human DU145 cells after 48 hrs by […] growth inhibition assay; conditions: DU-145, 48 h
OVCAR-5 = experiment: Growth inhibition of human OVCAR5 cells assessed as cell growth at 100 uM after 48 hrs by SRB assay; conditions: OVCAR-5, 48 h, read-out: Activity
786-0 = experiment: Growth inhibition of human 786-0 cells after 48 hrs by […] growth inhibition assay; conditions: 786-0, 48 h
Malme-3M = experiment: Growth inhibition of human MALME-3M cells assessed as cell growth at 10 uM after 48 hrs by SRB assay; conditions: read-out: Activity
NCI-H522 [13] = experiment: Growth inhibition of human NCI-H522 cells after 48 hrs by […] growth inhibition assay; conditions: NCI-H522, 48 h
NCI-H322M [14] = experiment: Growth inhibition of human NCI-H322M cells assessed as cell growth at 10 uM after 48 hrs by SRB assay; conditions: read-out: Activity
[15] = read-out: LC50 (the source's name)
[16] = read-out: pLC50 (the source's name) (converted)

## CNC(=O)NC[C@H]1O[C@@H](n2cnc3c(NC(=O)Nc4ccccc4)ncnc32)[C@H](O[Si](C)(C)C(C)(C)C)[C@@H]1CC(=O)N(C)OC
SK-MEL-5 [1]
  growth at 1 µM: 98%
KM12
  growth at 100 µM: 62%
NCI-H522 [2]
  growth at 100 µM: 51%
SN12C
  growth at 1 µM: 104%
LOX IMVI
  growth at 1000 µM: 35%
OVCAR-3 [3]
  growth at 100 µM: 41%
SF-295 [4]
  growth at 0.1 µM: 93%
TK-10 [5]
  growth at 1 µM: 106%
NCI-H322M [6]
  growth at 1 µM: 98%
SF-539
  growth at 1 µM: 94%
SK-MEL-5 [7]; read-out: GI50
  GI50: 5.81 µM
SK-MEL-5 [7]; [15]
  CC50: > 100 µM
SK-MEL-5 [7]; read-out: TGI
  TGI: > 100 µM
SK-MEL-5 [7]; read-out: pGI50 (converted)
  GI50: 5.75 µM
SK-MEL-5 [7]; [16]
  CC50: > 100 µM
SK-MEL-5 [7]; read-out: pTGI (converted)
  TGI: > 100 µM
HOP-92
  growth at 10 µM: 67%
SW-620
  growth at 10 µM: 93%
TK-10 [8]; read-out: GI50
  GI50: 20.6 µM
TK-10 [8]; [15]
  CC50: > 100 µM
TK-10 [8]; read-out: TGI
  TGI: > 100 µM
TK-10 [8]; read-out: pGI50 (converted)
  GI50: 20.4 µM
TK-10 [8]; [16]
  CC50: > 100 µM
TK-10 [8]; read-out: pTGI (converted)
  TGI: > 100 µM
CCRF-CEM
  growth at 10 µM: 96%
SF-295 [9]
  growth at 1000 µM: 20%
OVCAR-4; read-out: GI50
  GI50: 53 µM
OVCAR-4; [15]
  CC50: > 100 µM
OVCAR-4; read-out: TGI
  TGI: > 100 µM
OVCAR-4; read-out: pGI50 (converted)
  GI50: 52.5 µM
OVCAR-4; [16]
  CC50: > 100 µM
OVCAR-4; read-out: pTGI
  TGI: > 100 µM
ACHN
  growth at 1 µM: 102%
NCI-H322M [10]; read-out: GI50
  GI50: > 100 µM
NCI-H322M [10]; [15]
  CC50: > 100 µM
NCI-H322M [10]; read-out: TGI
  TGI: > 100 µM
NCI-H322M [10]; read-out: pGI50 (converted)
  GI50: > 100 µM
NCI-H322M [10]; [16]
  CC50: > 100 µM
NCI-H322M [10]; read-out: pTGI
  TGI: > 100 µM
SK-MEL-5 [11]
  growth at 10 µM: 89%
OVCAR-3 [12]; read-out: GI50
  GI50: 7.11 µM
OVCAR-3 [12]; [15]
  CC50: > 100 µM
OVCAR-3 [12]; read-out: TGI
  TGI: > 100 µM
OVCAR-3 [12]; read-out: pGI50 (converted)
  GI50: 7.08 µM
OVCAR-3 [12]; [16]
  CC50: > 100 µM
OVCAR-3 [12]; read-out: pTGI (converted)
  TGI: > 100 µM
HOP-62
  growth at 1000 µM: 28%
HCT-116; read-out: GI50
  GI50: 4.2 µM
HCT-116; [15]
  CC50: > 100 µM
HCT-116; read-out: TGI
  TGI: > 100 µM
HCT-116; read-out: pGI50 (converted)
  GI50: 4.17 µM
HCT-116; [16]
  CC50: > 100 µM
HCT-116; read-out: pTGI (converted)
  TGI: > 100 µM
NCI-H226
  growth at 1000 µM: 40%
DU-145; read-out: GI50
  GI50: 16.6 µM
DU-145; [15]
  CC50: > 100 µM
DU-145; read-out: TGI
  TGI: > 100 µM
DU-145; read-out: pGI50 (converted)
  GI50: 16.6 µM
DU-145; [16]
  CC50: > 100 µM
DU-145; read-out: pTGI (converted)
  TGI: > 100 µM
OVCAR-5
  growth at 100 µM: 71%
786-0; read-out: GI50
  GI50: 9.01 µM
786-0; [15]
  CC50: > 100 µM
786-0; read-out: TGI
  TGI: > 100 µM
786-0; read-out: pGI50 (converted)
  GI50: 8.91 µM
786-0; [16]
  CC50: > 100 µM
786-0; read-out: pTGI (converted)
  TGI: > 100 µM
Malme-3M
  growth at 10 µM: 93%
NCI-H522 [13]; read-out: GI50
  GI50: 11.1 µM
NCI-H522 [13]; [15]
  CC50: > 100 µM
NCI-H522 [13]; read-out: TGI
  TGI: > 100 µM
NCI-H522 [13]; read-out: pGI50 (converted)
  GI50: 11 µM
NCI-H522 [13]; [16]
  CC50: > 100 µM
NCI-H522 [13]; read-out: pTGI (converted)
  TGI: > 100 µM
NCI-H322M [14]
  growth at 10 µM: 102%
